Results from ChEMBL document CHEMBL1909046, “DrugMatrix in vitro pharmacology data”.

Key:
[1] = DRUGMATRIX: Calcium Channel Type L, Benzothiazepine radioligand binding (ligand: [3H] Diltiazem); assay type: cell membranes, Rattus norvegicus, Wistar, Brain, Membrane; settings: Not Active = under 50% inhibition at 10 µM
Insulin receptor = Insulin receptor (Rattus norvegicus, UniProt P15127); assay type: cell membranes, Wistar, Liver, Membrane; note: in other assays of this panel Not Active means under 50% inhibition at 10 µM
[2] = target: T1, Muscarinic acetylcholine receptor M4 (Homo sapiens, UniProt P08173); assay type: cell membranes, CHO-K1, Membrane; settings: cho-k1; note: in other assays of this panel Not Active means under 50% inhibition at 10 µM
T1 sequence (P08173 whole entry): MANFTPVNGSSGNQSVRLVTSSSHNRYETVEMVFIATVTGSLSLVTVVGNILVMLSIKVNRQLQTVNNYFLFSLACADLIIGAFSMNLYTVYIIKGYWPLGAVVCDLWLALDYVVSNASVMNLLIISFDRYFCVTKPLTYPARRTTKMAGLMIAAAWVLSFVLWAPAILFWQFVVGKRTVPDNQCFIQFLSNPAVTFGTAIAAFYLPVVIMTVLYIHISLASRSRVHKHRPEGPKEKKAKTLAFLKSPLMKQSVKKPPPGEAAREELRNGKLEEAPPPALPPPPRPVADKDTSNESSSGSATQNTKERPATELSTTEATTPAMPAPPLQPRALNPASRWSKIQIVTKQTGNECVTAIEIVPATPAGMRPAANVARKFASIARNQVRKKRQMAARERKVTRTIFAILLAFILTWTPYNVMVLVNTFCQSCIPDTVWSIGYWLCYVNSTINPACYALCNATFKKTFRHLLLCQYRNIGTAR

[3] = DRUGMATRIX: Phosphodiesterase PDE4 enzyme inhibition (substrate: [3H]cAMP + cAMP); settings: u-937; Not Active = under 50% inhibition at 10 µM
Cytochrome P450 1A2 = target: T2, Cytochrome P450 1A2 (Homo sapiens, UniProt P05177); settings: bti-tn-5b1-4; note: in other assays of this panel Not Active means under 50% inhibition at 10 µM
T2 sequence (P05177 whole entry): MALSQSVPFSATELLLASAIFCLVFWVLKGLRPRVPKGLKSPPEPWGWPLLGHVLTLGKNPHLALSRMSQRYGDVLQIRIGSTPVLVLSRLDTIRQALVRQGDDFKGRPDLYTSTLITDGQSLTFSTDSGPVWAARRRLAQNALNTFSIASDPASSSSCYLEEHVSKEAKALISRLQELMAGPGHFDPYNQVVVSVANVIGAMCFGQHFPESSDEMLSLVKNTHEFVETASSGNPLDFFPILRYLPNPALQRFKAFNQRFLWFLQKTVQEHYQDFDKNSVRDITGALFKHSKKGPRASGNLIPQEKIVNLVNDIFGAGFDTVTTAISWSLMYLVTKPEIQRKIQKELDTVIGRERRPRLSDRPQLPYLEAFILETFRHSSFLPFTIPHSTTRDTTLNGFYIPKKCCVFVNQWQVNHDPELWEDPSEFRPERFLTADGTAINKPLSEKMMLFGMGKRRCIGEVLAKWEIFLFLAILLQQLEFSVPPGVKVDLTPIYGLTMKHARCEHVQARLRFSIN

Sequence of Insulin receptor (P15127 27-759 limits assumed): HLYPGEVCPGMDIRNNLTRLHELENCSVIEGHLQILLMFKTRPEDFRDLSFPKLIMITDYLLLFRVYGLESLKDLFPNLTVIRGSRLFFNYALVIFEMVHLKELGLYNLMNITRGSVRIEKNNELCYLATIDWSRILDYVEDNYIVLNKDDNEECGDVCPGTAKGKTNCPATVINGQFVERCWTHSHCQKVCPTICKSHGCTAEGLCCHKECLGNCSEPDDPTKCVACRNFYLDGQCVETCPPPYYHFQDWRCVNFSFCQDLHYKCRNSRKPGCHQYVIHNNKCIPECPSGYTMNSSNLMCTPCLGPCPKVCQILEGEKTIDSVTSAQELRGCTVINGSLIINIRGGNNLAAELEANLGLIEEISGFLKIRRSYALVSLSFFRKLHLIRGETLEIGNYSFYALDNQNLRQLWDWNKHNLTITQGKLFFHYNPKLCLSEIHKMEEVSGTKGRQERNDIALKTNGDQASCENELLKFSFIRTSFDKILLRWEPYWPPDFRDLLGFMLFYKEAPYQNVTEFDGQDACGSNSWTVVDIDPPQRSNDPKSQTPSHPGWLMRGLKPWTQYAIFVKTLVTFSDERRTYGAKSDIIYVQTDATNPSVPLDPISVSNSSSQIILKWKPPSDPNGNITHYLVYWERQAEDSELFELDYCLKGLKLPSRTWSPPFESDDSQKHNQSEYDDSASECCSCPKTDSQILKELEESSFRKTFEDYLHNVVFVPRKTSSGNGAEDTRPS
Sequence of Insulin receptor (P15127 764-1383 limits assumed): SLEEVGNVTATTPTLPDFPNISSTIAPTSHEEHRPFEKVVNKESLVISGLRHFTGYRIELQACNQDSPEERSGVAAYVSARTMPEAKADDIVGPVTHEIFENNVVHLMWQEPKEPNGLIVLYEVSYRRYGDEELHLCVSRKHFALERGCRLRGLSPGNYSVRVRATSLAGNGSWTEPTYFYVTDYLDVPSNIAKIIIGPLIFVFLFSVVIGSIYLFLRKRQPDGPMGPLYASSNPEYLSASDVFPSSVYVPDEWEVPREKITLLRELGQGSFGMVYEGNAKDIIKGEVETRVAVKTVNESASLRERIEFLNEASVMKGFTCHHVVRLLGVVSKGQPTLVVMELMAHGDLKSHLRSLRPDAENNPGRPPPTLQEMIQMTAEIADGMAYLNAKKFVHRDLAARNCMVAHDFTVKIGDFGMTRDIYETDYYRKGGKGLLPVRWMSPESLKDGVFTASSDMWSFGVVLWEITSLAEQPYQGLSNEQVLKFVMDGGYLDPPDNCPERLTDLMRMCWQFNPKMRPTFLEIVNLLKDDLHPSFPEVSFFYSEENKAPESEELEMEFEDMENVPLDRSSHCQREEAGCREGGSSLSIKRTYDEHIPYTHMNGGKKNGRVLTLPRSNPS

O=C1CC[C@H](N2C(=O)c3ccccc3C2=O)C(=O)N1
Not Active: IC50 [1] | Ki [1] | IC50 (Insulin receptor) | IC50 [2] | IC50 [3] | Ki [3] | IC50 (Cytochrome P450 1A2) | Ki (Cytochrome P450 1A2)

CC(=O)Nc1ccc(O)cc1 [ACETAMINOPHEN]
Not Active: IC50 [1] | Ki [1] | IC50 (Insulin receptor) | IC50 [2] | IC50 [3] | Ki [3] | IC50 (Cytochrome P450 1A2) | Ki (Cytochrome P450 1A2)

CCOC(=O)[C@H](CCc1ccccc1)N[C@H]1CCc2ccccc2N(CC(=O)O)C1=O [BENAZEPRIL]
Not Active: IC50 [1] | Ki [1] | IC50 (Insulin receptor) | IC50 [2] | IC50 [3] | Ki [3] | IC50 (Cytochrome P450 1A2) | Ki (Cytochrome P450 1A2)

O=C1CC2(CCCC2)CC(=O)N1CCCCN1CCN(c2ncccn2)CC1 [BUSPIRONE]
Not Active: IC50 [1] | Ki [1] | IC50 (Insulin receptor) | IC50 [2] | IC50 [3] | Ki [3] | IC50 (Cytochrome P450 1A2) | Ki (Cytochrome P450 1A2)

ClC(Cl)Cl [CHLOROFORM]
Not Active: IC50 [1] | Ki [1] | IC50 (Insulin receptor) | IC50 [2] | IC50 [3] | Ki [3] | IC50 (Cytochrome P450 1A2) | Ki (Cytochrome P450 1A2)

C[C@@H]1C[C@@H]([C@H](O)CC2CC(=O)NC(=O)C2)C(=O)[C@@H](C)C1 [CYCLOHEXIMIDE]
Not Active: IC50 [1] | Ki [1] | IC50 (Insulin receptor) | IC50 [2] | IC50 [3] | Ki [3]

CC(=O)Nc1c(I)c(NC(C)=O)c(I)c(C(=O)O)c1I [DIATRIZOIC ACID]
Not Active: IC50 [1] | Ki [1] | IC50 (Insulin receptor) | IC50 [2] | IC50 [3] | Ki [3] | IC50 (Cytochrome P450 1A2) | Ki (Cytochrome P450 1A2)

CCN1CC(CCN2CCOCC2)C(c2ccccc2)(c2ccccc2)C1=O (configuration not stated) [DOXAPRAM]
Not Active: IC50 [1] | Ki [1] | IC50 (Insulin receptor) | IC50 [2] | IC50 [3] | Ki [3] | IC50 (Cytochrome P450 1A2) | Ki (Cytochrome P450 1A2)

Cn1c(=O)c2c(ncn2CC2OCCO2)n(C)c1=O [DOXOFYLLINE]
Not Active: IC50 [1] | Ki [1] | IC50 (Insulin receptor) | IC50 [2] | IC50 [3] | Ki [3] | IC50 (Cytochrome P450 1A2) | Ki (Cytochrome P450 1A2)

C[C@]12CC[C@@H]3c4ccc(OC(=O)c5ccccc5)cc4CC[C@H]3[C@@H]1CC[C@@H]2O [ESTRADIOL BENZOATE]
Not Active: IC50 [1] | Ki [1] | IC50 (Insulin receptor) | IC50 [2] | IC50 [3] | Ki [3] | IC50 (Cytochrome P450 1A2) | Ki (Cytochrome P450 1A2)

C[C@]12CC[C@@H]3c4ccc(O)cc4CC[C@H]3[C@@H]1CC[C@@H]2O [ESTRADIOL]
Not Active: IC50 [1] | Ki [1] | IC50 (Insulin receptor) | IC50 [2] | IC50 [3] | Ki [3] | IC50 (Cytochrome P450 1A2) | Ki (Cytochrome P450 1A2)

CC[C@@H](CO)NCCN[C@@H](CC)CO [ETHAMBUTOL]
Not Active: IC50 [1] | Ki [1] | IC50 (Insulin receptor) | IC50 [2] | IC50 [3] | Ki [3] | IC50 (Cytochrome P450 1A2) | Ki (Cytochrome P450 1A2)

NC(=O)NO [HYDROXYUREA]
Not Active: IC50 [1] | Ki [1] | IC50 (Insulin receptor) | IC50 [2] | IC50 [3] | Ki [3]

Nc1ccn([C@@H]2CS[C@H](CO)O2)c(=O)n1 [LAMIVUDINE]
Not Active: IC50 [1] | Ki [1] | IC50 (Insulin receptor) | IC50 [2] | IC50 [3] | Ki [3] | IC50 (Cytochrome P450 1A2) | Ki (Cytochrome P450 1A2)

COc1ccc2cc([C@H](C)C(=O)O)ccc2c1 [NAPROXEN]
Not Active: IC50 [1] | Ki [1] | IC50 (Insulin receptor) | IC50 [2]
